Data: PubChem BioAssay (NCI)
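How tested: cells in 96-well plates exposed to compound for 48 hours at five concentrations. TGI denotes the concentration required for complete inhibition of growth.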

Legend:
Test in all cases: NCI anticancer screen, dose series, 48 h
[1] = tested on: HL-60(TB) leukemia
[2] = tested on: CAKI-1 renal
[3] = tested on: HCT-116 colon
[4] = tested on: SK-MEL-5 melanoma
[5] = tested on: ACHN renal
[6] = tested on: MOLT-4 leukemia
[7] = tested on: NCI-H23 lung
[8] = tested on: MDA-MB-435
[9] = tested on: HT29 colon
[10] = tested on: SK-MEL-2 melanoma
[11] = tested on: EKVX NSCLC
[12] = tested on: BT-549 breast
[13] = tested on: SF-295 CNS
[14] = tested on: UO-31 renal
[15] = tested on: CCRF-CEM leukemia
[16] = tested on: M14 melanoma

Row | SMILES | TGI [1] [µM] | TGI [2] [µM] | TGI [3] [µM] | TGI [4] [µM] | TGI [5] [µM] | TGI [6] [µM] | TGI [7] [µM] | TGI [8] [µM] | TGI [9] [µM] | TGI [10] [µM] | TGI [11] [µM] | TGI [12] [µM] | TGI [13] [µM] | TGI [14] [µM] | TGI [15] [µM] | TGI [16] [µM]
1 | CC(=O)N[C@H]1CCCC[C@@H]1OC(C)=O | > 100 | > 100 | > 100 | > 100 | > 100 | > 100 | > 100 | > 100 | > 100 | > 100 | > 100 | > 100 | > 100 | – | – | –
2 | Cc1ccc(S(=O)(=O)OC2C(C3COC(C)(C)O3)OC3OC(C)(C)OC32)cc1 (stereo unspecified) | – | > 100 | > 100 | > 100 | > 100 | > 100 | > 100 | > 100 | > 100 | > 100 | > 100 | > 100 | > 100 | > 100 | > 100 | > 100
3 | O=[N+]([O-])c1cc(Cl)cc2cc(Cl)cnc12 | > 100 | > 100 | > 100 | > 100 | > 100 | > 100 | > 100 | > 100 | > 100 | – | > 100 | > 100 | > 100 | > 100 | > 100 | > 100
4 | O=C(CCCl)NNC1=NCCN1 | > 100 | – | > 100 | > 100 | > 100 | > 100 | > 100 | > 100 | > 100 | > 100 | > 100 | > 100 | > 100 | > 100 | > 100 | > 100
5 | O=C(/C=C/c1ccco1)CC(=O)/C=C/c1ccco1 | 11.7 | 26.2 | 17.4 | 18.1 | 21 | 23 | 17.4 | 22.1 | – | 22.2 | > 31.6 | 55.4 | – | 20.2 | 16.3 | > 31.6
6 | N/N=C1\CCCc2c1no[n+]2[O-] | > 100 | > 100 | > 100 | > 100 | > 100 | > 100 | > 100 | > 100 | > 100 | > 100 | > 100 | – | > 100 | > 100 | > 100 | > 100
7 | COc1cccc(/C=C2\CCCCCC2=O)c1 | – | > 100 | > 100 | > 100 | > 100 | > 100 | > 100 | > 100 | > 100 | > 100 | > 100 | > 100 | > 100 | > 100 | – | > 100
8 | O=[n+]1c2ccccc2n([O-])c2cc(Br)ccc21 | 7.56 | 17.2 | > 100 | 39.5 | 17.4 | 2.19 | 49.6 | 36.5 | 39.1 | 56.8 | 49.9 | – | 46.4 | 28.1 | > 100 | > 100
9 | C=C1c2nc3ccccc3n2C=C(c2ccccc2)N1c1ccccc1 | > 100 | > 100 | > 100 | 83.3 | > 100 | > 100 | > 100 | > 100 | – | > 100 | > 100 | 98.5 | > 100 | > 100 | > 100 | > 100
10 | OCCN(CCO)c1ccc2c(c1)Cc1ccccc1-2 | > 100 | 32 | > 100 | > 100 | > 100 | > 100 | > 100 | > 100 | 37.8 | 63.2 | > 100 | – | > 100 | > 100 | > 100 | > 100
11 | Cc1ccc(-c2csc(=Nc3c(C)n(C)n(-c4ccccc4)c3=O)n2CCO)cc1 | > 100 | > 100 | – | – | > 100 | > 100 | > 100 | > 100 | – | > 100 | > 100 | > 100 | > 100 | > 100 | > 100 | > 100
12 | O=C(O)c1ccc(C(c2c(O)c3ccccc3oc2=O)c2c(O)c3ccccc3oc2=O)cc1 | 0.129 | > 100 | > 100 | > 100 | > 100 | > 100 | > 100 | > 100 | > 100 | > 100 | – | > 100 | > 100 | > 100 | > 100 | > 100
13 | CC(=O)OCC1OC(n2c(N)c(C#N)c(-c3ccc(C)cc3)c(C#N)c2=S)C(OC(C)=O)C(OC(C)=O)C1OC(C)=O (stereo unspecified) | > 100 | > 100 | > 100 | 23.2 | > 100 | – | 51.9 | 79.3 | 39.1 | 28.5 | 34.7 | > 100 | 73.8 | 31.8 | 78.4 | 30
14 | CC1CCC2C(C(=O)O[C@H]3C4CCO[C@@H](OC5OC(CO)C(O)C(O)C5O)C4[C@@]4(CO)O[C@@H]34)=CO[C@@H](OC3OC(CO)C(O)C(O)C3O)C12 (stereo partly specified) | > 10 | – | > 10 | > 10 | > 10 | > 10 | > 10 | > 10 | > 10 | > 10 | > 10 | > 10 | > 10 | > 10 | > 10 | > 10
15 | Cc1n[nH]c(=O)n1/N=C/c1c[nH]c2ccccc12 | – | > 100 | > 100 | – | > 100 | > 100 | > 100 | > 100 | – | > 100 | > 100 | > 100 | > 100 | > 100 | > 100 | > 100
16 | N#CCCN(CCC#N)c1ccc(/C=C2\N=C(c3ccccc3)N(c3ccccn3)C2=O)cc1 | > 100 | > 100 | > 100 | > 100 | > 100 | > 100 | – | > 100 | > 100 | > 100 | > 100 | > 100 | > 100 | > 100 | > 100 | > 100

Row | SMILES | TGI [1] [µM] | TGI [2] [µM] | TGI [3] [µM] | TGI [4] [µM] | TGI [5] [µM] | TGI [6] [µM] | TGI [7] [µM] | TGI [8] [µM] | TGI [9] [µM] | TGI [10] [µM] | TGI [11] [µM] | TGI [12] [µM] | TGI [13] [µM] | TGI [14] [µM] | TGI [15] [µM] | TGI [16] [µM]
17 | COc1ccc(O)c(C=NCCCN=Cc2cc(OC)ccc2O)c1 | 28.5 | – | > 100 | – | 74.4 | > 100 | > 100 | 86.4 | > 100 | > 100 | 83 | > 100 | 51.1 | > 100 | 83.5 | > 100
18 | CCOC(=O)NC(NC(C)CC)(C(F)(F)F)C(F)(F)F (stereo unspecified) | > 100 | > 100 | > 100 | > 100 | > 100 | > 100 | > 100 | > 100 | > 100 | > 100 | > 100 | – | > 100 | > 100 | > 100 | > 100
19 | Cc1c2c(n(Cc3ccccn3)c1C)NN=C(C#N)S2(=O)=O | – | > 100 | > 100 | > 100 | > 100 | > 100 | > 100 | > 100 | > 100 | > 100 | > 100 | > 100 | > 100 | > 100 | – | > 100
20 | O=C(OCC1OC(c2nn[nH]n2)C(OC(=O)c2ccccc2)C1OC(=O)c1ccccc1)c1ccccc1 (stereo unspecified) | > 100 | > 100 | > 100 | > 100 | > 100 | > 100 | > 100 | > 100 | > 100 | > 100 | > 100 | > 100 | > 100 | > 100 | > 100 | –
21 | S=C(S)N1CCN(c2ccc(Cl)c(Cl)c2)CC1 | 44.3 | 59.8 | 29.5 | 30.5 | > 100 | – | – | 37.4 | 49.3 | 34.6 | > 100 | > 100 | > 100 | – | > 100 | 40.7
22 | COc1ccc2c(c1)N=C1CSC(c3cc([N+](=O)[O-])ccc3Cl)N1C2 (stereo unspecified) | 55.7 | 66.8 | 47.4 | > 100 | 54.1 | 77.8 | 62.4 | 47.6 | 68.4 | 51.1 | 47.1 | 80.7 | > 100 | 57.9 | – | 86.8
23 | FC(F)(Sc1ccccc1)c1nc2ccccc2o1 | – | > 100 | > 100 | > 100 | > 100 | 52.2 | > 100 | > 100 | > 100 | > 100 | – | > 100 | > 100 | > 100 | 55.5 | > 100
24 | COc1ccc2oc(C(=O)N3CC(CCl)c4ccc([N+](=O)[O-])cc43)cc2c1 (stereo unspecified) | – | 45.6 | > 100 | > 100 | > 100 | – | > 100 | > 100 | – | > 100 | > 100 | > 100 | 69.6 | > 100 | – | > 100
25 | CC(C)(C)C(=O)C(C(c1ccccc1)N1CCOCC1)N1CCOCC1 (stereo unspecified) | – | > 100 | > 100 | – | > 100 | > 100 | > 100 | > 100 | > 100 | > 100 | > 100 | > 100 | > 100 | > 100 | > 100 | > 100
26 | CC(C)NC(=O)OCc1c(COC(=O)NC(C)C)n(C)c2c1ccc1ccccc12 | 22.4 | 1.94 | 2.82 | 6.63 | 2.82 | > 25.4 | 3.17 | 4.9 | 13 | 4.09 | 10.4 | 1.58 | 17.2 | 4.09 | – | 3.2
27 | CN(CCCCN(C)CCc1ccc(Cl)c(Cl)c1)CCCCN1CCCC1 | 3.97 | 3.13 | 2.93 | 3.19 | 3.64 | – | 3.41 | 0.904 | 1.88 | 3.12 | 3.54 | 4.6 | 3.54 | 0.96 | 0.39 | 2.16
28 | CCN(CC)CCCNc1nc2ccccc2c2[nH]c3ccc(OC)cc3c12 | 3.02 | 8.25 | 1.95 | 3.12 | > 10 | 1.69 | 2.93 | 2.99 | 2.05 | 3.16 | 3.31 | – | 2.39 | > 10 | 3.87 | 3.1
29 | ClC1=C(Cc2ccccc2)Cc2ccc3c(c21)CCC3 | 41.5 | 69.7 | 94.9 | 40.6 | > 100 | 39.8 | > 100 | 75.6 | 50.9 | – | > 100 | 67.5 | 91.8 | 69.6 | 90.1 | > 100
30 | CN(/N=C/C=N/N(C)C1=NCCCCN1)C1=NCCCCN1 | – | > 100 | > 100 | > 100 | > 100 | > 100 | > 100 | > 100 | > 100 | – | > 100 | > 100 | > 100 | > 100 | > 100 | > 100
31 | CCOC(=O)C1=c2[nH]c3cccc4cccc(c43)n2C=C(C(C)=O)C1CC(C)=O (stereo unspecified) | 59.2 | > 100 | > 100 | > 100 | > 100 | > 100 | > 100 | > 100 | – | > 100 | > 100 | > 100 | > 100 | > 100 | > 100 | > 100
32 | CCOP(=O)(OCC)/C(C#N)=C/c1cccn1CC(C)C | – | > 100 | > 100 | > 100 | > 100 | > 100 | > 100 | > 100 | > 100 | > 100 | > 100 | > 100 | > 100 | > 100 | – | > 100
